Assay: Release from two-component films with barrier layers
Format: physicochemical
Description: In one exemplary embodiment, a range of strategies were employed to control the relative positions of multiple, labeled species within a single film by constructing physical barriers to separate the two components. In one embodiment, films were constructed containing 20-40 base layers of polymer 1/HEP, followed by a set of “barrier” layers including polymer 1/SPS (degradable), PDAC/SPS (non-degradable), thermally cross-linked PAH/PAA, or nothing at all, followed by 20-40 surface layers of polymer 1/DS (FIG. 18). A similar set of films was also constructed, but with the order of the labeled components reversed (e.g., DS base layers and HEP surface layers).
Thus, the use of a single covalently cross-linked PAH/PAA layer was sufficient to separate the two components when deposited onto the surface of the linearly growing polymer 1/DS system, as evidenced by the two-stage release profile. Following a delay of approximately 25 h, the underlying DS was released with a linear profile.
FIG. 27A illustrates the effect of barrier layers on the average release rate from the exemplary two-component systems described above. It is apparent that the average release rate (taken as the average slope of the initial, linear portion of the release curve) of systems including of an underlying layer of linearly-growing DS can be broadly controlled using both multiple layers of a nondegradable system PDAC/SPS or as little as a single layer of cross-linked PAH/PAA. Further, by tuning any of the parameters affecting the degree of cross-linking (e.g., cross-linking time, temperature, number of cross-linked layers), the release rate can be dramatically altered. […] Thus, milder cross-linking conditions (e.g., lower temperatures) may allow for a greater degree of flexibility in tailoring release profiles. Further, aqueous, chemical cross-linking techniques using common biochemical reagents such as carbodiimides may represent a suitable alternative to thermal cross-linking when low temperature fabrication is required. Nevertheless, one skilled in the art will recognize that a range of approaches may be employed to control the release of underlying species, particularly when the underlying species lacks the ability to diffuse throughout the film.
General Considerations. A Harrick PDC-32G plasma cleaner was used to etch silicon substrates (3 cm×2 cm) following rinsing with methanol and deionized water and drying under a stream of dry nitrogen. Layer-by-layer thin films were deposited using an automated Carl Zeiss HMS Series Programmable Slide Stainer. Absorbances from growing films were measured using Fourier Transform Infrared Spectroscopy (FTIR) using a Nicolet Magna IR 550 Series II Spectrometer. Zinc selenide substrates used for transmission FTIR analysis were prepared using the same method employed for silicon substrates, Ellipsometric measurements for film thickness were conducted using a Gaertner Variable Angle Ellipsometer ([…], 70° incident angle) and Gaertner Ellipsometer Measurement Program (GEMP) Version 1.2 software interface. The release of radiolabeled polymers was quantified using a Tri-carb liquid scintillation counter (Model U2200). […] (PAH/PAA) films were thermally cross-linked by incubating films in a Yamoto DVS400 gravity convection oven at 215° C. for indicated time intervals.
Release Studies. For drug release experiments, radiolabeled LbL thin films were first constructed by alternately depositing polymer 1 and the indicated radiolabeled drug(s). Radiolabled deposition solutions containing ^3H-heparin were prepared by combining 1 mL of 50 μCi/mL ^3H-heparin (0.30 mCi/mg, Mn=12500) with 35 mL of 100 mM acetate buffer. Unlabeled heparin (Mn=12500) was added to bring the total concentration of heparin (unlabeled plus labeled) to 2 mg/mL (1.5-2 μCi/mL ^3H). […]

[1] = DS base layer, heparin surface layer, 50 (PDAC/SPS) non-degradable dividing layers
[2] = DS base layer, heparin surface layer, 50 (Poly1/SPS) degradable dividing layers
[3] = DS base layer, heparin surface layer, separated by a single cross-linked layer of (PAH/PAA)
[4] = DS base layer, heparin surface layer, without dividing layers
[5] = heparin base layer, DS surface layer, (PDAC/SPS)50 non-degradable dividing layers
[6] = heparin base layer, DS surface layer, (Poly1/SPS)20 degradable dividing layers
[7] = heparin base layer, DS surface layer, without dividing layers
[8] = polymer 1/DS base, single PAH/PAA bilayer cross-linked 20 min at 215° C., polymer 1/HEP surface

release pattern [1] | release pattern [2] | release pattern [3] | release pattern [4] | change in release rate (cross-linking times greater than 1.5 h at 215° C., or barriers with more than five cross-linked layers (data not shown)) | release pattern [5] | release pattern [6] | release pattern [7] | release of underlying DS (multiple layers of PAH/PAA cross-linked longer than 1.5 h at 215° C., up to 45 days) | average rate of DS release, slower than in corresponding films without covalently cross-linked barrier layers [8] | delay before release of underlying DS [8] | effect of barrier layer on release of heparin (heparin-loaded films coated with a single layer of (PAH/PAA) cross-linked 45 min at 215° C. vs untreated films) | Substance
simultaneous release | simultaneous release | sequential release | simultaneous release | one to two order of magnitude decreases | simultaneous release | simultaneous release | simultaneous release | no release of DS was observed | approximately 60% | approximately 25 h |  | Dextran sulfate sodium salt [DS]
simultaneous release | simultaneous release | sequential release | simultaneous release |  | simultaneous release | simultaneous release | simultaneous release |  |  |  | does not significantly delay | Heparin sodium salt

Reference: patent US8105652B2, “Methods of making decomposable thin films of polyelectrolytes and uses thereof” (Massachusetts Institute of Technology, priority 2002, dated 2012)
